Measured values reported in patent US10160771B2, “Hepatitis C virus inhibitors and uses thereof in preparation of drugs” (priority 2014, dated 2018).

Tests used:
[1] = tested on: HCV genotype 1a (HCV-1a) replicon cells; test: HCV genotype 1a replicon luciferase assay (EC50); format: cell-based, hepatitis C virus genotype 1a (H77 clone); conditions: 3 days, luciferase (Bright-Glo)
Procedure, shortened: (§1)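 EC50 values come from nonlinear fitting of inhibition derived from replicon luciferase signal. Cells (8000/well) were treated 3 days with duplicate 6-point, 5-fold dilutions, starting at 100, 10 or 1 nM, with 0.5% DMSO.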

[2] = tested on: HCV genotype 1b (HCV-1b) replicon cells; test: HCV genotype 1b replicon luciferase assay (EC50); format: cell-based, hepatitis C virus genotype 1b (Con1 clone); conditions: 3 days, luciferase (Bright-Glo)
Procedure, shortened: as §1

HCV-1b replicon cells = test: Cell Titer-fluor cell activity assay in HCV-1b replicon cells (CC50); format: cell-based; conditions: 3 days
Procedure, shortened: (§2)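 CC50 derived by nonlinear fitting of inhibition % from Cell Titer-fluor signal (405/515 nm, 30 min). Cells: genotype 1b Con1 replicon carrying E1202G, T1280I, K1846T, seeded 8000/well with compound for 3 days, 37 °C, 0.5% DMSO; 6 points, 5-fold dilution, top 100, 10 or 1 nM, duplicates.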

in vitro = format: cell-based; conditions: HCV 1a replicon cells, 3 days, Cell Titer-fluor
Description: The EC50 and CC50 values of anti-HCV compounds were determined by HCV genotype 1a (HCV-1a) and 1B (HCV-1b) stable transfer replication (replicon) cells. The source of genotype 1a replicon is H77 clones containing K1691R, K2040R and S2204I adaptive mutations. The source of genotype 1b replicon is Con1 clones containing E1202G, T1280I and K1846T adaptive mutations.
HCV Replicon Cell Lines: HCV-1a and HCV-1b Cells
The compound powder was dissolved in 100% DMSO. Then the compound was diluted 5 times with 6 points, and added into the cell plate with Echo liquid handler. Ensure the final concentration of DMSO was 0.5%. Each compound was tested in double holes. Maximum initial concentration was 100, 10 or 1 nM, 5 times dilution, 6 points.
b) Cell Culture (HCV-1a or HCV-1b Replicon Cell):
1) absorbing the culture supernatant of the cell culture and washing the cells with 10 mL PBS.
2) adding preheated pancreatin to the washed cell culture flasks, rotating culture bottle to make the bottom of the culture bottle uniformly covered by pancreatin, then placed into 37° C., 5% CO2 incubator to digest.
3) suspending cells in each T150 culture flask with 10-15 mL culture medium, absorbing 0.1 mL liquid and diluting 2 times by trypan blue solution as counted.
4) diluting cells to 8×10^4/mL with the culture medium, adding the diluted cells into the compound-containing 96-well plate (Greiner, Cat.#655090) (100 μL/well, 8000 cells/well) with automatic liquid separator (Thermo Scientific). Then place into a 37° C., 5% CO2 incubator for 3 days. Cell control well: no compound, only containing 0.5% DMSO.
5) adding chemiluminescent substrate Cell Titer-fluor to the cell well, after incubation for 30 minutes, detecting the signal by chemiluminescence detection system Envison (Ex at 405 nm and read at 515 nm). The effect of the compounds on the activity of HCV replicon cells was analyzed according to the luminescence data, which was used to calculate the CC50 values.
The EC50 or CC50 values were obtained by nonlinear fitting analysis on inhibition percentage (inh %) data with GraphPad Prism software.

[3] = Cell Titer-fluor cell activity assay in HCV-1b replicon cells (CC50); format: cell-based
Procedure, shortened: as §2

Row | SMILES | EC50 [1] [nM] | EC50 [2] [nM] | CC50 (HCV-1b replicon cells) [nM] | EC50 ([1]; Hepatitis C virus, 72 h) [nM] | EC50 ([2]; Hepatitis C virus, 72 h) [nM] | CC50 (in vitro) [nM] | CC50 at 3 days [3] [nM]
1 | COC(=O)N[C@H](C(=O)N1CCC[C@H]1c1ncc(-c2ccc(-c3ccc(-c4cnc([C@H]5C6CCC(C6)[C@@H]5C(=O)NC(C)c5cccnc5)[nH]4)cc3)cc2)[nH]1)C(C)C (single isomer, unassigned) [AA_204_C] | 1 to 10 | 0.001 to 0.1 | > 1 | – | – | – | –
2 | COC(=O)N[C@H](C(=O)N1CCCC1c1ccc(-c2ccc(-c3ccc(-c4cnc([C@@H]5CCCN5C(=O)[C@@H](NC(=O)OC)C(C)C)[nH]4)cc3)cc2)[nH]1)C(C)C (stereo partly drawn) [AG_001] | – | – | – | 1 to 10 | 0.001 to 0.1 | > 10 | > 1
3 | COC(=O)N[C@H](C(=O)N1CCCC1c1[nH]c(-c2ccc(-c3ccc(-c4cnc([C@@H]5CCCN5C(=O)[C@@H](NC(=O)OC)C(C)C)[nH]4)cc3)cc2)c2c1CCCC2)C(C)C (stereo partly drawn) [AG_015] | – | – | – | 10 to 100 | 0.001 to 0.1 | > 100 | > 10
4 | COC(=O)NC(C(=O)N1CCC[C@H]1c1ncc(-c2ccc(-c3ccc(-c4[nH]c(C5CCCN5C(=O)[C@@H](NC(=O)OC)C(C)C)c5c4CCC5)cc3)cc2)[nH]1)C1CCOCC1 (stereo partly drawn) [AG_035] | – | – | – | 10 to 100 | 0.001 to 0.1 | > 100 | > 10
5 | COC(=O)NC(C(=O)N1CCCC1c1[nH]c(-c2ccc(-c3ccc(-c4cnc([C@@H]5CCCN5C(=O)[C@@H](NC(=O)OC)C(C)C)[nH]4)cc3)cc2)c2c1CCC2)C1CCOCC1 (stereo partly drawn) [AG_036] | – | – | – | 1 to 10 | 0.001 to 0.1 | > 100 | > 10
6 | COC(=O)N[C@H](C(=O)N1CCC[C@H]1c1ncc(-c2ccc(-c3ccc(-c4ccc(C5CCCN5C(=O)[C@@H](NC(=O)OC)C5CCOCC5)[nH]4)cc3)cc2)[nH]1)C(C)C (stereo partly drawn) [AG_037] | – | – | – | 0.101 to 1 | 0.001 to 0.1 | > 100 | > 10
7 | COC(=O)NC(C(=O)N1CCCC1c1ccc(-c2ccc(-c3ccc(-c4[nH]c(C5CCCN5C(=O)[C@H](NC(=O)OC)C(C)C)c5c4CCC5)cc3)cc2)[nH]1)C1CCOCC1 (stereo partly drawn) [AG_038] | – | – | – | 10 to 100 | 0.101 to 1 | > 100 | > 10
8 | COC(=O)NC(C(=O)N1CCCC1c1[nH]c(-c2ccc(-c3ccc(-c4cnc([C@@H]5CCCN5C(=O)[C@@H](NC(=O)OC)C(C)C)[nH]4)cc3)cc2)c2c1CCCC2)C1CCOCC1 (stereo partly drawn) [AG_040] | – | – | – | 10 to 100 | 0.101 to 1 | > 100 | > 10
9 | COC(=O)NC(C(=O)N1CCCC1c1[nH]c(-c2ccc(-c3ccc(-c4cnc([C@@H]5CCCN5C(=O)C(NC(=O)OC)C5CCOCC5)[nH]4)cc3)cc2)c2c1CCC2)C1CCOCC1 (stereo partly drawn) [AG_042] | – | – | – | 1 to 10 | 0.101 to 1 | > 100 | > 100
10 | COC(=O)NC(C(=O)N1CCCC1c1[nH]c(-c2ccc(-c3ccc(-c4cnc([C@@H]5CCCN5C(=O)C(NC(=O)OC)C5CCOCC5)[nH]4)cc3)cc2)c2c1CCCC2)C1CCOCC1 (stereo partly drawn) [AG_045] | – | – | – | 10 to 100 | 0.101 to 1 | > 100 | > 100
11 | COC(=O)NC(C(=O)N1CCC[C@H]1c1ncc(-c2ccc(-c3ccc(-c4[nH]c(C5CCCN5C(=O)[C@@H](NC(=O)OC)C(C)C)c5c4CCCC5)cc3)cc2)[nH]1)C1CCOC1 (stereo partly drawn) [AG_046] | – | – | – | 10 to 100 | 0.101 to 1 | > 100 | > 100
12 | COC(=O)NC(C(=O)N1CCC[C@H]1c1ncc(-c2ccc(-c3ccc(-c4[nH]c(C5CCCN5C(=O)[C@@H](NC(=O)OC)C(C)C)c5c4CCCC5)cc3)cc2)[nH]1)C1CCOC(C)C1 (stereo partly drawn) [AG_047] | – | – | – | 10 to 100 | 0.101 to 1 | > 100 | > 100
13 | COC(=O)N[C@H](C(=O)N1CCCC1c1ncc(-c2ccc3cc(-c4ccc(-c5[nH]c(C6CCCN6C(=O)[C@@H](NC(=O)OC)C(C)C)c6c5CCC6)cc4)ccc3c2)[nH]1)C(C)C (stereo partly drawn) [AG_048] | – | – | – | 10 to 100 | 0.101 to 1 | > 100 | > 100
